These results are taken from ChEMBL document CHEMBL4765419, “Design, synthesis and bioactivity evaluation of novel arylalkene-amide derivatives as dual-target antifungal inhibitors” (Eur J Med Chem, 2020).

What all share (format): functional
The subject of assay [1] is Candida tropicalis. In words: Antifungal activity against Candida tropicalis assessed as inhibition of microbial growth by two fold broth microdilution method. In general terms: Broth dilution looks for growth in wells or tubes with falling amounts of substance.
The subject of assay [2] is Nakaseomyces glabratus. In words: Antifungal activity against Candida glabrata assessed as inhibition of microbial growth by two fold broth microdilution method.
The subject of assay [3] is Aspergillus fumigatus. In words: Antifungal activity against Aspergillus fumigatus assessed as inhibition of microbial growth by two fold broth microdilution method.
The test system of assay [4] is Candida albicans. In words: Antifungal activity against Candida albicans assessed as inhibition of microbial growth by two fold broth microdilution method.
Assay [5] concerns Pichia kudriavzevii. In words: Antifungal activity against Candida krusei assessed as inhibition of microbial growth by two fold broth microdilution method.

SMILES strings stand for the structures. A value given as a limit tells only on which side of the number the result lay.

Usually MIC stands for the lowest concentration that inhibits growth of the organism. Turning to `O=C(NCc1cccnc1)C(=O)N/N=C/c1cccc2ccccc12`, the MIC was 0.5 µg/mL in assay [1]; 0.5 µg/mL in assay [2]; above 16 µg/mL in assay [3]; 0.5 µg/mL in assay [4]; 0.25 µg/mL in assay [5].

For the compound `O=C(/C=C/c1ccc2c(c1)OCCO2)NC(Cn1ccnc1)C(=O)Nc1ccccc1` (stereo not given), the minimum inhibitory concentration (MIC) in assay [1] is 0.25 µg/mL; in assay [2], 0.5 µg/mL; in assay [3] it was above 16 µg/mL; in assay [4], 0.25 µg/mL; in assay [5] it was 1 µg/mL.

On to `O=C(/C=C/c1ccc2ccccc2c1)NC(Cn1ccnc1)C(=O)Nc1ccccc1` (stereo not given), for which the MIC amounted to 0.5 µg/mL in assay [1]; 0.25 µg/mL in assay [2]; 8 µg/mL in assay [3]; 0.5 µg/mL in assay [4]; 0.5 µg/mL in assay [5].

Regarding `O=C(NCc1cccnc1)C(=O)N/N=C/c1ccc2c(c1)OCCO2`, the MIC in assay [1] is 1 µg/mL; in assay [2], 0.5 µg/mL; in assay [3], above 16 µg/mL; in assay [4] it was 0.5 µg/mL; in assay [5], 2 µg/mL.

For the compound `O=C(NCc1ccncc1)C(=O)N/N=C/c1ccc2c(c1)OCCO2`, the MIC turned out to be 1 µg/mL in assay [1]; 1 µg/mL in assay [2]; 8 µg/mL in assay [3]; 0.5 µg/mL in assay [4]; 0.5 µg/mL in assay [5].

For `CN(CC(=O)NCc1cccnc1)C(=O)/C=C/c1ccc2c(c1)OCCO2`, the MIC in assay [1] was 0.5 µg/mL; in assay [2] it was 0.5 µg/mL; in assay [3], above 16 µg/mL; in assay [4], 2 µg/mL; in assay [5], 4 µg/mL.

For the compound `O=C(/C=C/c1cccc2ccccc12)NCC(=O)NCc1ccncc1`, the MIC in assay [1] is 0.25 µg/mL; in assay [2], 0.25 µg/mL; in assay [3], 4 µg/mL; in assay [4], 0.25 µg/mL; in assay [5], 0.5 µg/mL.

Consider `CN(CC(=O)NCc1ccncc1)C(=O)/C=C/c1ccc2c(c1)OCCO2`, for which the MIC in assay [1] is 0.5 µg/mL; in assay [2], 1 µg/mL; in assay [3], above 16 µg/mL; in assay [4], 0.5 µg/mL; in assay [5], 1 µg/mL.

In the case of `O=C(/C=C/c1ccc2c(c1)OCCO2)NCC(=O)NCc1ccncc1`, the MIC was 1 µg/mL in assay [1]; 0.5 µg/mL in assay [2]; above 16 µg/mL in assay [3]; 0.5 µg/mL in assay [4]; 0.5 µg/mL in assay [5].

As to `CN(CC(=O)NCc1ccncc1)C(=O)/C=C/c1cccc2ccccc12`, the MIC came to 0.25 µg/mL in assay [1]; 0.25 µg/mL in assay [2]; 4 µg/mL in assay [3]; 0.125 µg/mL in assay [4]; 0.5 µg/mL in assay [5].

Regarding `O=C(/C=C/c1cccc2ccccc12)NCC(=O)NCc1cccnc1`, the MIC in assay [1] is 0.5 µg/mL; in assay [2], 1 µg/mL; in assay [3] it was 8 µg/mL; in assay [4], 0.5 µg/mL; in assay [5], 1 µg/mL.

Take `CN(CC(=O)NCc1cccnc1)C(=O)/C=C/c1cccc2ccccc12`: the MIC is 0.5 µg/mL in assay [1]; 0.5 µg/mL in assay [2]; above 16 µg/mL in assay [3]; 0.5 µg/mL in assay [4]; 0.25 µg/mL in assay [5].

Turning to `CN(CC(=O)NCc1cccnc1)C(=O)/C=C/c1ccc2ccccc2c1`, the MIC is 1 µg/mL in assay [1]; 1 µg/mL in assay [2]; above 16 µg/mL in assay [3]; 0.5 µg/mL in assay [4]; 0.5 µg/mL in assay [5].

With `O=C(/C=C/c1ccc2ccccc2c1)NCC(=O)NCc1ccncc1`, the MIC in assay [1] is 0.25 µg/mL; in assay [2], 0.5 µg/mL; in assay [3], above 16 µg/mL; in assay [4] it was 0.25 µg/mL; in assay [5], 1 µg/mL.

In the case of `O=C(NCc1cccnc1)C(=O)N/N=C/c1ccc2ccccc2c1`, the MIC in assay [1] was determined as 0.25 µg/mL; in assay [2], 0.25 µg/mL; in assay [3], 8 µg/mL; in assay [4], 1 µg/mL; in assay [5] it was 0.5 µg/mL.

In the case of `O=C(/C=C/c1cccc2ccccc12)NC(Cn1ccnc1)C(=O)NCc1ccccc1` (stereo not given), the MIC in assay [1] is 0.5 µg/mL; in assay [2], 0.5 µg/mL; in assay [3], above 16 µg/mL; in assay [4], 0.5 µg/mL; in assay [5] it was 2 µg/mL.
